Test results as given in US10723726B2, “Solid forms of (Z)-4-(5-((3-benzyl-4-oxo-2-thioxothiazolidin-5-ylidene)methyl)furan-2-yl)benzoic acid” (GB006, INC., priority 2015, dated 2020).
Where a name gives a salt, the structure may show the parent alone. Read-outs that look alike come from different tables or passages of the source.

Key:
[1] = Humidity stress at 40° C./75% RH; format: physicochemical; details: 5-6 days
Description: The larger vials were capped, sealed with Parafilm and placed inside an oven at 40° C. for up to 6 days. Salts were then removed from these conditions and changes observed (e.g. color, deliquescence etc.) before being analyzed for weight change and by XRPD. Samples were examined visually after stressing, form composition confirmed by XRPD analysis and weight change recorded (Table 7).

[2] = Aqueous solubility by equilibration, HPLC analysis; format: physicochemical
Description: An aliquot of the UHQ water test solvent (1 mL) was added to an accurately weighed sample of the LA1 salts and agitated at ambient temperature for a period of 4 days. A sample was withdrawn, filtered through a […], and analyzed by HPLC. HPLC was used to determine aqueous equilibrium solubility at ambient temperature. […] Samples were slurried in water for 4-5 days before analysis.

[3] = tested on: murine melanoma B16-F10 tumors; experiment: Murine melanoma B16F10 allograft efficacy (Example 19); format: in vivo, C57BL/6 mice; details: 3 or 30 mg/kg daily for 15 days
Description: TUMOR CELLS. B16-F10 cells were cultured in DMEM cell culture medium supplemented with 10% FBS and 1% penicillin-streptomycin. The cells were maintained at 37° C. in […]. When the cells reached 75-80% confluence, they were harvested by trypsinization, washed, and counted. The cells were then re-suspended in serum free medium at a concentration of 0.1 million cells/75 μl.
TUMOR CELL INOCULATION. Cells were inoculated subcutaneously on the flank of black mice. Prior to inoculation, hair was trimmed and skin on the injection site (dorsal right flank) was swabbed with alcohol. Cells in serum free medium (0.1 million cells/75 μl) were mixed with Matrigel at a ratio of 3:1 and a total volume of 100 μl was injected into each animal with a 1 mL BD syringe attached to a 26 G needle.
RANDOMIZATION. Tumors were palpable around Day 7 of inoculation.
STATISTICAL CALCULATIONS. All statistical calculations were performed using Prism 5.0 (GraphPad Software Inc., USA). Comparisons of tumor size measurements during and at the termination of the study were made between the treatment groups and respective vehicle control groups using One Way ANOVA followed by Dunnett's multiple comparison tests. A p-value of less than 0.05 was considered significant.

[4] = Histopathology (Example 19); format: in vivo, C57BL/6 mice; details: also seen in one animal of the control group
Description: HISTOPATHOLOGY. Histopathological examination was conducted using liver, kidney, lung, spleen, heart, and stomach samples.

[5] = male, in vivo
Description: (§1) In a second experiment, the dose solution was prepared in Tween-80 (0.02%) and 0.5% methyl cellulose in Milli-Q water. IP (2 mg/kg) and IV (1 mg/kg) dose solutions were prepared in a 5% DMSO and 95% PEG-200.
(§2) The PO (2 mg/kg) dose solution was prepared in Tween-80 (0.02%) and 0.5% methyl cellulose in Milli-Q water. The IV (1 mg/kg) dose solution was prepared in a solution of 5% DMSO and 95% PEG-200.
(§3) The routes of administration were namely PO (gavage), IP (bolus) and IV (bolus through tail vein). A total of four SD male rats were used aged between 5-6 weeks. The feeding regimen included 12 h fasting and the feed was provided 2 hrs after the dosage inoculation and water was provided ad libidum. The blood collection schedule for PO/IP was at 0.25, 0.5, 1, 2, 4, 8, 10 and 24 h, and for IV it was at 0.12, 0.25, 0.5, 1, 2, 4, 8 and 24 h. For PO dosage, tween-80 (0.02%) and 0.5% methyl cellulose prepared in milli-Q water were used as vehicles; for IP and IV dosage 5% DMSO and 95% PEG-200 were used as vehicles.
(§4) Stock solution (178 μg/mL) in methanol was further diluted using methanol: water (80:20, v/v) to obtain working solutions in the range of 10.4 to 20745 ng/mL.
(§5) 50 μL of sample was aliquoted in to pre-labeled vials. To it was added 200 μL of 10% tetrahydrofuran containing IS (100 ng/mL; tolbutamide) and mixed well, vortexed for 5 min followed by centrifugation for 5 min at 14000 rpm for at 4° C. Supernatant was separated and 5 μL of same was injected on LC-MS/MS.
(§6) Data Analysis: Individual concentration-time data were analyzed using WinNonlin (Version 5.3) by non-compartmental analysis (NCA) method.
(§7) The routes of administration were namely PO (gavage) and IV (bolus through tail vein). A total of four SD male rats were used aged between 5-6 weeks. The feeding regimen included 12 h fasting and the feed was provided 2 hrs after the dosage inoculation and water was provided ad libitum. The blood collection schedule for PO was at 0.25, 0.5, 1, 2, 4, 8, 10 and 24 h, and for IV it was at 0.12, 0.25, 0.5, 1, 2, 4, 8 and 24 h. For PO dosage, tween-80 (0.02%) and 0.5% methyl cellulose prepared in milli-Q water were used as vehicles; for IV dosage 10% DMSO and 90% PEG-200 were used as vehicles.

in vivo = details: male, Sprague-Dawley, rat
Description: as §1, §2, §3, §4, §5, §6, §7

[6] = after slurrying in water 4-5 days
[7] = Sprague-Dawley, rat, ip, 2 mg/kg
[8] = Sprague-Dawley, rat, iv, 1 mg/kg
[9] = Sprague-Dawley, rat, po, 2 mg/kg

## O=C(O)c1ccc(-c2ccc(/C=C3\SC(=S)N(Cc4ccccc4)C3=O)o2)cc1 [LA1 meglumine salt]
[1]
  Weight gain (%): 1.4%
  XRPD after stressing: No change
[2]; UHQ water, thermodynamic from solid, water, ambient temperature, slurried 4-5 days, corrected for weight of counter-ion, read-out: Aq solub
  solubility: 724 µg/mL
[2]; [6]
  Appearance: No change
  Soln pH: 8
[2]; after slurrying in water 4-5 days (chemical stability)
  HPLC purity (%): 34.7%
[3]
  growth inhibition of B16-F10 tumors as compared to vehicle control: 58-66%
[4]
  microscopic examination of liver tissues: minimal to moderate hepatocellular necrosis in one animal
  tumor metastasis in lung tissue: Tumor metastasis was observed in lung tissue from one animal
[5]; Sprague Dawley, iv, 1 mg/kg
  Rat Cl: 17.5 mL/min/kg
[5]; Sprague Dawley, rat
  Vss: 0.74 L/kg
[5]; Sprague-Dawley
  Rat Cl: 18 mL/min/kg
[5]; Sprague-Dawley, ip, 2 mg/kg
  Rat F %: 167%
[5]; Sprague-Dawley, iv, 1 mg/kg
  Rat Cl: 17.5 mL/min/kg
[5]; Sprague-Dawley, po, 2 mg/kg
  Rat F %: 37.1%
[5]; Sprague-Dawley, rat
  % F (absolute IP bioavailability): > 100%
  F (absolute oral bioavailability): 37.1%
  Vss: 0.74 L/kg
[5]; [7]
  AUC0-t: 3252 ng·h/mL
  AUC0-∞: 3270 ng·h/mL
  Tlast: 17.0 h
  Tmax: 0.25 h
[5]; [8]
  AUC0-t: 967 ng·h/mL
  AUC0-∞: 978 ng·h/mL
  C0: 2142 ng/mL
  MRT: 0.91 h
  Tlast: 8.00 h
  Vd: 1.85 L/kg
[5]; [9]
  AUC0-t: 722 ng·h/mL
  AUC0-∞: 726 ng·h/mL
  Tlast: 10.0 h
In vivo; F (absolute oral bioavailability)
  bioavailability: 37%
In vivo; po, 2 mg/kg, MRT
  MRT: 1.54 h
In vivo; po, 2 mg/kg, t1/2,ß
  half-life: 1.6 h
In vivo; po, 2 mg/kg, tmax
  Tmax: 0.5 h
